From patent US9073882B2, “Inhibitors of the renal outer medullary potassium channel” (Merck Sharp & Dohme Corp., priority 2010, dated 2015)
Read-outs that look alike come from different tables or passages of the source.

Key:
hROMK1 (Kir1.1) = hROMK1 (Kir1.1) (Homo sapiens (Human), UniProt P48048); experiment: ^86Rb^+ Efflux Assay; assay type: cell-based; conditions: CHO-DHFR- cells stably expressing hROMK1 (Kir1.1)
hROMK (hKir1.1) = hROMK (hKir1.1) (Homo sapiens (Human), UniProt P48048); experiment: Thallium Flux Assay; assay type: cell-based; conditions: Table 2; HEK293 cells stably expressing hROMK (hKir1.1)
[1] = value in parentheses at the end of each Example, read-out: IC50 in the ^86Rb^+ Efflux Assay

Chain of hROMK1 (Kir1.1) (P48048 whole entry): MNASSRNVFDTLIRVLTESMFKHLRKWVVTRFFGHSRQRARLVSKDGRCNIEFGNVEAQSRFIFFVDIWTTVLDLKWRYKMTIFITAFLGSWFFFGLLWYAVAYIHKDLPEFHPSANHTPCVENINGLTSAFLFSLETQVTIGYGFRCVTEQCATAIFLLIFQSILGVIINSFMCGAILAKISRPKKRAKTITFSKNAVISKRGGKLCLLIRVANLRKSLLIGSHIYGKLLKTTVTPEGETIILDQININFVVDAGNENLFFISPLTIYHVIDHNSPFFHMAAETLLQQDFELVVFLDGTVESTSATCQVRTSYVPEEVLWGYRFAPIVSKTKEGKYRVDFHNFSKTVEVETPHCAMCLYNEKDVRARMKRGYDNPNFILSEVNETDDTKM
Chain of hROMK (hKir1.1) (P48048 whole entry): as above

Structure (SMILES)	IC50 (hROMK1 (Kir1.1); [1])	IC50 (hROMK (hKir1.1))	IC50 (hROMK1 (Kir1.1); Table 1, read-out: ^86Rb^+ Efflux Assay IC50)
C[C@H]1Cc2cc(CCN3CCN(CCc4ccc5c(c4)C[C@H](C)OC5=O)CC3)ccc2C(=O)O1 [Example 58, (3S,3′S)-6,6′-(Piperazine-1,4-diyldiethane-2,1-diyl)bis(3-methyl-3,4-dihydro-1H-isochromen-1-one)]	650 nM	240 nM	
Cc1c(CCN2CCN(CCc3ccc4c(c3)COC4=O)CC2)ccc(C#N)c1F [Example 81, 2-Fluoro-3-methyl-4-(2-{4-[2-(1-oxo-1,3-dihydro-2-benzofuran-5-yl)ethyl]piperazin-1-yl}ethyl)benzonitrile]	80 nM		
Cc1c(CCN2CCN(CCc3ccc4c(c3C)COC4=O)CC2)ccc(C#N)c1F [Example 82, 2-Fluoro-3-methyl-4-(2-{4-[2-(4-methyl-1-oxo-1,3-dihydro-2-benzofuran-5-yl)ethyl]piperazin-1-yl}ethyl)benzonitrile]	63 nM		
COc1c(C#N)ccc(CCN2CCN(CCc3ccc4c(c3)COC4=O)CC2)c1C [Example 83, 2-Methoxy-3-methyl-4-(2-{4-[2-(1-oxo-1,3-dihydro-2-benzofuran-5-yl)ethyl]piperazin-1-yl}ethyl)benzonitrile]	180 nM		
COc1c(C#N)ccc(CCN2CCN(CCc3ccc4c(c3C)COC4=O)CC2)c1C [Example 84, 2-Methoxy-3-methyl-4-(2-{4-[2-(4-methyl-1-oxo-1,3-dihydro-2-benzofuran-5-yl)ethyl]piperazin-1-yl}ethyl)benzonitrile]	78 nM		
N#Cc1ccc(CCN2CCN(CCc3ccc4c(c3)COC4=O)CC2)c(Cl)c1F [Example 85, 3-Chloro-2-fluoro-4-(2-{4-[2-(1-oxo-1,3-dihydro-2-benzofuran-5-yl)ethyl]piperazin-1-yl}ethyl)benzonitrile]	130 nM		

Results, then the molecule that gave them:

IC50 (hROMK1 (Kir1.1); [1])	IC50 (hROMK (hKir1.1))	IC50 (hROMK1 (Kir1.1); Table 1, read-out: ^86Rb^+ Efflux Assay IC50)	Structure (SMILES)
78 nM	17 nM		Cc1c(CCN2CCN(CCc3ccc(C#N)c(F)c3Cl)CC2)ccc2c1COC2=O [Example 86, 3-Chloro-2-fluoro-4-(2-{4-[2-(4-methyl-1-oxo-1,3-dihydro-2-benzofuran-5-yl)ethyl]piperazin-1-yl}ethyl)benzonitrile]
160 nM			COc1c(C#N)ccc(CCN2CCN(CCc3ccc4c(c3)COC4=O)CC2)c1Cl [Example 87, 3-Chloro-2-methoxy-4-(2-{4-[2-(1-oxo-1,3-dihydro-2-benzofuran-5-yl)ethyl]piperazin-1-yl}ethyl)benzonitrile]
83 nM			COc1c(C#N)ccc(CCN2CCN(CCc3ccc4c(c3C)COC4=O)CC2)c1Cl [Example 88, 3-Chloro-2-methoxy-4-(2-{4-[2-(4-methyl-1-oxo-1,3-dihydro-2-benzofuran-5-yl)ethyl]piperazin-1-yl}ethyl)benzonitrile]
180 nM			Cc1c(CCN2CCN(CC3CCOc4cc(C#N)ccc43)CC2)ccc2c1COC2=O (stereo not shown) [Example 91, 4-({4-[2-(4-Methyl-1-oxo-1,3-dihydro-2-benzofuran-5-yl)ethyl]piperazin-1-yl}methyl)-3,4-dihydro-2H-chromene-7-carbonitrile]
220 nM			Cc1c(C(C)CN2CCN(CC(C)c3ccc4c(c3C)COC4=O)CC2)ccc2c1COC2=O (stereo not shown) [Example 93]
34 nM	12 nM	34 nM	Cc1c(CCN2CCN(CC(C)c3ccc4c(c3C)COC4=O)CC2)ccc2c1COC2=O (stereo not shown) [Example 94, 4-Methyl-5-(1-(4-(2-(4-methyl-1-oxo-1,3-dihydroisobenzofuran-5-yl)ethyl)piperazin-1-yl)propan-2-yl)isobenzofuran-1(3H)-one]
